Measured values reported in paper PMC12718374, “Structural basis and evolutionary pathways of glycerol-1-phosphate transport in marine bacteria” (Proceedings of the National Academy of Sciences of the …, 2025).

Legend:
[1] = target: Phaeobacter sp. MED193 GpxB (MED193_19449) (Roseobacter sp. MED193, UniProt A3X5C8); test: Microscale thermophoresis (MST) binding affinity assay, purified recombinant GpxB; conditions: 22 °C, 20 mM HEPES pH 7.4, 100 mM NaCl, recombinant GpxB of Phaeobacter sp. MED193
Experimental: (§1) The binding affinity of the purified proteins to G1P and other structurally related chemicals was measured using a Monolith NT.115 (NanoTemper Technologies, Munich, Germany). Proteins (160 nM) were labeled in assay buffer (PBS containing 0.05% (v/v) Tween-20) using the Protein Labelling Kit RED-Tris-NTA (NanoTemper Technologies). For binding assays, the buffer was replaced by 20 mM HEPES pH 7.4, 100 mM NaCl, 0.05% (v/v) Tween-20. Each chemical was prepared by serial dilution in the same assay buffer and mixed with the same volume of labeled protein (at a final concentration of 80 nM). The mixture was then loaded onto Monolith™ NT.115 Series capillaries (NanoTemper Technologies, Germany) and thermophoresis was measured at 22 °C using 60% excitation power and medium MST power. Data were analyzed using MO. Affinity Analysis v2.3 software (NanoTemper Technologies).
(§2) The full-length codon optimized GpxB (MED193_19449) of Phaeobacter sp. MED193 (WP_009811375.1), and four GpxB homologs (Marinobacter sp. DSM11874, MBB6025290.1; S. pseudonitzschiae DSM26824, WP_037914517.1; Sulfitobacter sp. EE-36, WP_005852758.1; S. geojensis sp. EhN01, WP_064222091.1) were chemically synthesized by Beijing Tsingke Biotech Co., Ltd. (China), and subcloned into pET-22b (Novagen, America) with a C-terminal His-tag. An N-terminal signal peptide truncated [residues 1−22 predicted by SignalP 5.0 Server ([36])] […]

[2] = target: Phaeobacter sp. MED193 UgpB (MED193_07903) (Phaeobacter sp. MED193 (Roseobacter sp. MED193), UniProt Z9VP90JAR2); test: MST binding affinity assay, purified recombinant UgpB; conditions: 22 °C, 20 mM HEPES pH 7.4, 100 mM NaCl, recombinant UgpB of Phaeobacter sp. MED193
Experimental: as §1, §2

[3] = target: GpxB^DSM11874 (GpxB homolog from Marinobacter sp. DSM11874) (Marinobacter sp. DSM 11874, UniProt Z9YUV0DEE1); test: MST binding affinity assay, purified GpxB^DSM11874; conditions: 22 °C, GpxB^DSM11874 of Marinobacter sp. DSM11874
Experimental: as §1, §2

[4] = target: GpxB from Sulfitobacter pseudonitzschiae DSM26824; test: MST binding affinity assay, purified GpxB from Sulfitobacter pseudonitzschiae DSM26824; conditions: GpxB of Sulfitobacter pseudonitzschiae DSM26824
Experimental: as §1, §2

[5] = target: GpxB from Sulfitobacter sp. EE-36; test: MST binding affinity assay, purified GpxB from Sulfitobacter sp. EE-36; conditions: GpxB of Sulfitobacter sp. EE-36
Experimental: as §1, §2

[6] = target: GpxB from Sulfitobacter geojensis EhN01; test: MST binding affinity assay, purified GpxB from Sulfitobacter geojensis EhN01; conditions: GpxB of Sulfitobacter geojensis EhN01
Experimental: as §1, §2

[7] = tested on: GpxB^DSM11874 alanine mutants (Tyr138, His199, Thr247, Arg223); test: MST binding affinity assay of site-directed alanine mutants of GpxB^DSM11874; parameters: species or system Marinobacter sp. DSM11874; conditions: alanine mutants of Tyr138, His199, Thr247, Arg223 versus wild-type GpxB^DSM11874
Experimental: as §1, §2

Phaeobacter sp. MED193 = test: Growth on substrate as the sole C source, wild type; assay type: cell-based; conditions: defined artificial seawater medium, 5 mM substrate
Experimental: (§3) Phaeobacter sp. MED193 and its mutant strains were routinely maintained on 1.5% (w/v) Difco marine broth 2216 agar with antibiotics as appropriate. To test the growth of Phaeobacter sp. MED193 on G1P/G3P, cells were first cultivated in 5 mL marine broth medium overnight at 30 °C with shaking at 150 rpm. A 1% (v/v) inoculum was then transferred to defined artificial seawater medium supplemented with 50 µM phosphate ([6]). After 24 h growth, 12.5 mL cultures were collected by centrifugation and inoculated into 100 mL artificial seawater medium. Subsequently, either G1P or G3P (purchased from Sigma-Aldrich, St. Louis, USA) was added to a final concentration of 5 mM as the sole C source. Cells (40 mL) were harvested after 48 h and used for proteomics.

[8] = tested on: Phaeobacter sp. MED193 ∆ugpB∆gpxB double mutant; test: Growth on substrate as the sole carbon source, ∆ugpB∆gpxB double mutant; assay type: cell-based; conditions: 5 mM substrate
Experimental: as §3
The gpxBugpB double mutant was generated using a conjugation protocol as described previously ([35]). First, two homologous regions of an upstream and a downstream fragment flanking the gpxB gene were cloned into suicide plasmid pK18mobsacB, together with a spectinomycin (Spec) resistance cassette which was inserted in between the upstream and downstream fragments. The resulting plasmid was then mobilized into Phaeobacter sp. MED193 using E. coli S17.1 lambda pir and transconjugants selected on marine broth MB agar containing Spec (200 µg mL^−1). […] The same protocol was repeated to generate the gpxBugpB double mutant in the gpxB single mutant background, except that a Gentamycin (Gm) resistant cassette was inserted in between the upstream and downstream fragments of ugpB into pK18mobsacB. All primers, plasmids, and bacterial strains used are listed in SI Appendix, Table S6.

Chain of Phaeobacter sp. MED193 UgpB (MED193_07903) (Z9VP90JAR2 43-453 limits assumed): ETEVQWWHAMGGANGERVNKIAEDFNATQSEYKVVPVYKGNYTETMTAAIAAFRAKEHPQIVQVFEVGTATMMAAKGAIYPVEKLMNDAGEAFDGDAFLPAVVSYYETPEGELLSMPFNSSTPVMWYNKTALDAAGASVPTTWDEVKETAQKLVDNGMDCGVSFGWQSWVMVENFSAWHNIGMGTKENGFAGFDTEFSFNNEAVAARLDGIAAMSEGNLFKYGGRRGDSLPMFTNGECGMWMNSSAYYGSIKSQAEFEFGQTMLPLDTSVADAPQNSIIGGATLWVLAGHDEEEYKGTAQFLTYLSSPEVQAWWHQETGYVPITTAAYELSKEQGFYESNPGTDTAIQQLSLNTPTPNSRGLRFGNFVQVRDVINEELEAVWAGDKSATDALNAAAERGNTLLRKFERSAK
Chain of Phaeobacter sp. MED193 GpxB (MED193_19449) (A3X5C8 1-326 limits assumed): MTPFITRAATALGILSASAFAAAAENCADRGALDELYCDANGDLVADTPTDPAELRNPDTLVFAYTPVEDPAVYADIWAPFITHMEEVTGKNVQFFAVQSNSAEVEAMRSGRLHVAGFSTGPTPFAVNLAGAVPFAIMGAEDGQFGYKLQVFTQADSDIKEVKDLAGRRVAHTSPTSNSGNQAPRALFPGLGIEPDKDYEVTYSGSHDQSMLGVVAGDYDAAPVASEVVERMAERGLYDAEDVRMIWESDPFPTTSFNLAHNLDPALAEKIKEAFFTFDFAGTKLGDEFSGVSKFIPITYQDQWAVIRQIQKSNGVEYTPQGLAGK
Chain of GpxB^DSM11874 (GpxB homolog from Marinobacter sp. DSM11874) (Z9YUV0DEE1 21-315 limits assumed): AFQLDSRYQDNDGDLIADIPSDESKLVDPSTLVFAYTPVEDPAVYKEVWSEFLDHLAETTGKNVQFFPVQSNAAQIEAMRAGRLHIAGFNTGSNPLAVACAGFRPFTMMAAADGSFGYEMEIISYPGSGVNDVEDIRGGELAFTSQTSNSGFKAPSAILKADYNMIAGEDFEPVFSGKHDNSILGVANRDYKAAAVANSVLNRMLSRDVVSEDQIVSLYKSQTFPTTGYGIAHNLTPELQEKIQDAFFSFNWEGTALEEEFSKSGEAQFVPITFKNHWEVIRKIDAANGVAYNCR

**Q.** For `O=P(O)(O)OC[C@@H](O)CO` [G1P, sn-glycerol-1-phosphate], which Kd [1] is on record?
**A.** 2.48 ± 0.14 µM

**Q.** And the Kd [2]?
**A.** 2.36 ± 0.35 µM

**Q.** And the Kd [3]?
**A.** 1.72 ± 0.28 µM

**Q.** What about the binding affinity [4] of the same molecule?
**A.** low-µM

**Q.** What about the binding affinity [5] of the same molecule?
**A.** low-µM

**Q.** What about the binding affinity [6] of the same molecule?
**A.** low-µM

**Q.** What about the “reduction in binding affinity of alanine mutants” value [7] of the same molecule?
**A.** 10- to 100 fold

**Q.** What about the “growth on the substance as the sole C source” value (Phaeobacter sp. MED193) of the same molecule?
**A.** grows

**Q.** What about the “growth on the substance as the sole carbon source” value [8] of the same molecule?
**A.** unable to grow

**Q.** Which results are given for `OCC(O)CO` [glycerol]?
**A.** growth on the substance as the sole C source (Phaeobacter sp. MED193): grows; growth on the substance as the sole carbon source [8]: unaffected

**Q.** `O=P(O)(O)OC[C@H](O)CO` [G3P, sn-glycerol-3-phosphate] was tested. Which Kd [1] did it give?
**A.** 1.02 ± 0.14 µM

**Q.** And the Kd [2]?
**A.** 0.8 ± 0.26 µM

**Q.** What about the Kd [3] of the same molecule?
**A.** 1.06 ± 0.15 µM

**Q.** And the binding affinity [4]?
**A.** low-µM

**Q.** And the binding affinity [5]?
**A.** low-µM

**Q.** What about the binding affinity [6] of the same molecule?
**A.** low-µM

**Q.** And the “growth on the substance as the sole C source” value (Phaeobacter sp. MED193)?
**A.** grows

**Q.** What about the “growth on the substance as the sole carbon source” value [8] of the same molecule?
**A.** unable to grow
